{"source": "patent US20150164762A1", "about": "“USE OF ETHANOLAMINE PHOSPHATE” (priority 2012, published 2015)", "tested_on": "BEAS-2B", "experiment": "Comprehensive gene expression analysis with Whole Human Genome DNA microarray after EP treatment", "type": "cell-based", "experimental": "Cells of the established normal human airway epithelial cell line BEAS-2B were used in the experiment. These cells were expansively cultured in 10% FBS RPMI-1640, and seeded at a density of 1×10^5/cm^2 on a 24-well plate. After 24 hours 0.1% FBS RPMI-1640 was substituted, and EP was administered to a final concentration of 0 or 1 mM (n=4). After 24 hours, the cells were used as the DNA microarray samples. RNA was extracted using a QIAGEN RNeasy Mini Kit. The DNA microarray test was performed using a Whole Human Genome DNA microarray 4×44K (Agilent), and the necessary labeling reagents and the like for the DNA microarray test were all from Agilent. The DNA microarray test data were analyzed statistically with GeneSpring (Agilent) dedicated analysis software, and gene function analysis (Gene Ontology (GO) analysis) was performed based on differential expression. The purpose of the GO analysis is to determine stochastically the degree to which gene sets with statistically significant differential expression correspond to known functional classification gene sets. […] The p-value is calculated according to the following formula.", "key": {"[1]": {"settings": "probe A_23_P92499, 1 mM EP, 24 h"}, "[2]": {"settings": "probe A_23_P94754, NM_005118, EP vs control"}, "[3]": {"settings": "probe A_23_P94754, 1 mM EP, 24 h"}, "[4]": {"settings": "probe A_23_P104798, NM_001562, EP vs control"}, "[5]": {"settings": "probe A_23_P104881, 1 mM EP, 24 h"}, "[6]": {"settings": "probe A_23_P105138, NM_001752, EP vs control"}, "[7]": {"settings": "probe A_23_P105138, 1 mM EP, 24 h"}, "[8]": {"settings": "probe A_23_P105803, 1 mM EP, 24 h"}, "[9]": {"settings": "probe A_23_P110052, 1 mM EP, 24 h"}, "[10]": {"settings": "probe A_23_P110151, 1 mM EP, 24 h"}, "[11]": {"settings": "probe A_23_P114662, NM_001889, EP vs control"}, "[12]": {"settings": "probe A_23_P115286, 1 mM EP, 24 h"}, "[13]": {"settings": "probe A_23_P118061, 1 mM EP, 24 h"}, "[14]": {"settings": "probe A_23_P118174, 1 mM EP, 24 h"}, "[15]": {"settings": "probe A_23_P122052, NM_001008397, EP vs control"}, "[16]": {"settings": "probe A_23_P122216, NM_002317, EP vs control"}, "[17]": {"settings": "probe A_23_P122216, 1 mM EP, 24 h"}, "[18]": {"settings": "probe A_23_P122775, NM_032730, EP vs control"}, "[19]": {"settings": "probe A_23_P126844, 1 mM EP, 24 h"}, "[20]": {"settings": "probe A_23_P127322, NM_018055, EP vs control"}, "[21]": {"settings": "probe A_23_P127406, NM_018039, EP vs control"}, "[22]": {"settings": "probe A_23_P128050, 1 mM EP, 24 h"}, "[23]": {"settings": "probe A_23_P128215, 1 mM EP, 24 h"}, "[24]": {"settings": "probe A_23_P128230, 1 mM EP, 24 h"}, "[25]": {"settings": "probe A_23_P129313, NM_001159508, EP vs control"}, "[26]": {"settings": "probe A_23_P131588, NM_014482, EP vs control"}, "[27]": {"settings": "probe A_23_P132388, NM_005138, EP vs control"}, "[28]": {"settings": "probe A_23_P134925, 1 mM EP, 24 h"}, "[29]": {"settings": "probe A_23_P135024, 1 mM EP, 24 h"}, "[30]": {"settings": "probe A_23_P135248, NM_006664, EP vs control"}, "[31]": {"settings": "probe A_23_P136116, NM_001004320, EP vs control"}, "[32]": {"settings": "probe A_23_P136493, NM_013962, EP vs control"}, "[33]": {"settings": "probe A_23_P138635, 1 mM EP, 24 h"}, "[34]": {"settings": "probe A_23_P143242, 1 mM EP, 24 h"}, "[35]": {"settings": "probe A_23_P145357, 1 mM EP, 24 h"}, "[36]": {"settings": "probe A_23_P146644, 1 mM EP, 24 h"}}, "data": [{"compound": "NCCOP(=O)(O)O", "note": "[EP, Ethanolamine phosphate]", "values": [{"measurement": "CIDEC expression log2 [ratio]", "setting": "probe A_23_P92025, 1 mM EP, 24 h", "value": "−0.754"}, {"measurement": "TLR2 expression R*: Ratio to control", "setting": "[1]", "value": 0.632, "unit": "times"}, {"measurement": "TLR2 expression log2 [ratio]", "setting": "[1]", "value": "−0.662"}, {"measurement": "TNFSF15 gene expression, R* ratio to control", "setting": "[2]", "value": 0.399, "unit": "times"}, {"measurement": "TNFSF15 gene expression, log2 [ratio]", "setting": "[2]", "value": "−1.327"}, {"measurement": "TNFSF15 expression R*: Ratio to control", "setting": "[3]", "value": 0.399, "unit": "times"}, {"measurement": "TNFSF15 expression log2 [ratio]", "setting": "[3]", "value": "−1.327"}, {"measurement": "IL18 gene expression, R* ratio to control", "setting": "[4]", "value": 0.641, "unit": "times"}, {"measurement": "IL18 gene expression, log2 [ratio]", "setting": "[4]", "value": "−0.641"}, {"measurement": "ROBO4 expression R*: Ratio to control", "setting": "[5]", "value": 1.785, "unit": "times"}, {"measurement": "ROBO4 expression log2 [ratio]", "setting": "[5]", "value": 0.836}, {"measurement": "CAT gene expression, R* ratio to control", "setting": "[6]", "value": 1.505, "unit": "times"}, {"measurement": "CAT gene expression, log2 [ratio]", "setting": "[6]", "value": 0.589}, {"measurement": "CAT expression R*: Ratio to control", "setting": "[7]", "value": 1.505, "unit": "times"}, {"measurement": "CAT expression log2 [ratio]", "setting": "[7]", "value": 0.589}, {"measurement": "FGF9 expression R*: Ratio to control", "setting": "[8]", "value": 1.606, "unit": "times"}, {"measurement": "FGF9 expression log2 [ratio]", "setting": "[8]", "value": 0.684}, {"measurement": "FOXL2 expression R*: Ratio to control", "setting": "[9]", "value": 0.352, "unit": "times"}, {"measurement": "FOXL2 expression log2 [ratio]", "setting": "[9]", "value": "−1.504"}, {"measurement": "ARHGAP24 expression R*: Ratio to control", "setting": "[10]", "value": 1.670, "unit": "times"}, {"measurement": "ARHGAP24 expression log2 [ratio]", "setting": "[10]", "value": 0.740}, {"measurement": "CRYZ gene expression, R* ratio to control", "setting": "[11]", "value": 1.632, "unit": "times"}, {"measurement": "CRYZ gene expression, log2 [ratio]", "setting": "[11]", "value": 0.707}, {"measurement": "BCL10 expression R*: Ratio to control", "setting": "[12]", "value": 0.542, "unit": "times"}, {"measurement": "BCL10 expression log2 [ratio]", "setting": "[12]", "value": "−0.883"}, {"measurement": "CKLF expression R*: Ratio to control", "setting": "[13]", "value": 1.501, "unit": "times"}, {"measurement": "CKLF expression log2 [ratio]", "setting": "[13]", "value": 0.586}, {"measurement": "PLK1 expression R*: Ratio to control", "setting": "[14]", "value": 2.447, "unit": "times"}, {"measurement": "PLK1 expression log2 [ratio]", "setting": "[14]", "value": 1.291}, {"measurement": "GPX8 gene expression, R* ratio to control", "setting": "[15]", "value": 1.413, "unit": "times"}, {"measurement": "GPX8 gene expression, log2 [ratio]", "setting": "[15]", "value": 0.499}, {"measurement": "LOX gene expression, R* ratio to control", "setting": "[16]", "value": 1.637, "unit": "times"}, {"measurement": "LOX gene expression, log2 [ratio]", "setting": "[16]", "value": 0.711}, {"measurement": "LOX expression R*: Ratio to control", "setting": "[17]", "value": 1.637, "unit": "times"}, {"measurement": "LOX expression log2 [ratio]", "setting": "[17]", "value": 0.711}, {"measurement": "RTN4IP1 gene expression, R* ratio to control", "setting": "[18]", "value": 1.436, "unit": "times"}, {"measurement": "RTN4IP1 gene expression, log2 [ratio]", "setting": "[18]", "value": 0.522}, {"measurement": "TNFRSF25 expression R*: Ratio to control", "setting": "[19]", "value": 0.532, "unit": "times"}, {"measurement": "TNFRSF25 expression log2 [ratio]", "setting": "[19]", "value": "−0.909"}, {"measurement": "NODAL gene expression, R* ratio to control", "setting": "[20]", "value": 0.450, "unit": "times"}, {"measurement": "NODAL gene expression, log2 [ratio]", "setting": "[20]", "value": "−1.154"}, {"measurement": "KDM4D gene expression, R* ratio to control", "setting": "[21]", "value": 1.448, "unit": "times"}, {"measurement": "KDM4D gene expression, log2 [ratio]", "setting": "[21]", "value": 0.534}, {"measurement": "BCL2L14 expression R*: Ratio to control", "setting": "[22]", "value": 0.594, "unit": "times"}, {"measurement": "BCL2L14 expression log2 [ratio]", "setting": "[22]", "value": "−0.751"}, {"measurement": "SOCS2 expression R*: Ratio to control", "setting": "[23]", "value": 1.720, "unit": "times"}, {"measurement": "SOCS2 expression log2 [ratio]", "setting": "[23]", "value": 0.783}, {"measurement": "NR4A1 expression R: Ratio to control", "setting": "[24]", "value": 0.302, "unit": "times"}, {"measurement": "NR4A1 expression log2 [ratio]", "setting": "[24]", "value": "−1.727"}, {"measurement": "IVD gene expression, R* ratio to control", "setting": "[25]", "value": 1.473, "unit": "times"}, {"measurement": "IVD gene expression, log2 [ratio]", "setting": "[25]", "value": 0.559}, {"measurement": "BMP10 gene expression, R* ratio to control", "setting": "[26]", "value": 0.625, "unit": "times"}, {"measurement": "BMP10 gene expression, log2 [ratio]", "setting": "[26]", "value": "−0.678"}, {"measurement": "SCO2 gene expression, R* ratio to control", "setting": "[27]", "value": 1.495, "unit": "times"}, {"measurement": "SCO2 gene expression, log2 [ratio]", "setting": "[27]", "value": 0.580}, {"measurement": "BNIP3L expression R*: Ratio to control", "setting": "[28]", "value": 0.633, "unit": "times"}, {"measurement": "BNIP3L expression log2 [ratio]", "setting": "[28]", "value": "−0.661"}, {"measurement": "ARHGEF6 expression R*: Ratio to control", "setting": "[29]", "value": 0.270, "unit": "times"}, {"measurement": "ARHGEF6 expression log2 [ratio]", "setting": "[29]", "value": "−1.889"}, {"measurement": "CCL27 gene expression, R* ratio to control", "setting": "[30]", "value": 0.556, "unit": "times"}, {"measurement": "CCL27 gene expression, log2 [ratio]", "setting": "[30]", "value": "−0.846"}, {"measurement": "TMEM195 gene expression, R* ratio to control", "setting": "[31]", "value": 1.962, "unit": "times"}, {"measurement": "TMEM195 gene expression, log2 [ratio]", "setting": "[31]", "value": 0.972}, {"measurement": "NRG1 gene expression, R* ratio to control", "setting": "[32]", "value": 0.646, "unit": "times"}, {"measurement": "NRG1 gene expression, log2 [ratio]", "setting": "[32]", "value": "−0.830"}, {"measurement": "BNIP3 expression R*: Ratio to control", "setting": "[33]", "value": 0.374, "unit": "times"}, {"measurement": "BNIP3 expression log2 [ratio]", "setting": "[33]", "value": "−1.418"}, {"measurement": "CEBPB expression R*: Ratio to control", "setting": "[34]", "value": 0.617, "unit": "times"}, {"measurement": "CEBPB expression log2 [ratio]", "setting": "[34]", "value": "−0.697"}, {"measurement": "BAK1 expression R*: Ratio to control", "setting": "[35]", "value": 0.402, "unit": "times"}, {"measurement": "BAK1 expression log2 [ratio]", "setting": "[35]", "value": "−1.313"}, {"measurement": "ANXA2 expression R*: Ratio to control", "setting": "[36]", "value": 1.673, "unit": "times"}, {"measurement": "ANXA2 expression log2 [ratio]", "setting": "[36]", "value": 0.742}]}]}
